From ChEMBL document CHEMBL6096664, “Discovery of novel KSP-targeting PROTACs with potent antitumor effects in vitro and in vivo” (Eur J Med Chem, 2025)

Tests used:
HCT-116 [1] = assay: Induction of apoptosis in human HCT-116 cells assessed as late apoptotic cells at 100 nM incubated for 48 hrs by Annexin V-FITC/PI staining based flow cytometry analysis (reference value: 1.36 %); assay type: functional
MCF7 = assay: Antiproliferative activity against human MCF7 cells assessed as inhibition of cell proliferation measured after 72 hrs by CCK8 assay; assay type: functional, cell-based; details: MCF7, 72 h
MDA-MB-231 = assay: Antiproliferative activity against human MDA-MB-231 cells assessed as inhibition of cell proliferation measured after 72 hrs by CCK8 assay; assay type: functional, cell-based; details: MDA-MB-231, 72 h
HCT-116 [2] = assay: Induction of cell cycle arrest in human HCT-116 cells assessed as accumulation of cells at G1 phase at 10 nM incubated for 24 hrs by RNase A/propidium iodide staining based flow cytometric analysis (reference value: 93.11 %); assay type: functional
HCT-116 [3] = assay: Induction of cell cycle arrest in human HCT-116 cells assessed as accumulation of cells at S phase at 10 nM incubated for 24 hrs by RNase A/propidium iodide staining based flow cytometric analysis (reference value: 2.84 %); assay type: functional
A549 = assay: Antiproliferative activity against human A549 cells assessed as inhibition of cell proliferation measured after 72 hrs by CCK8 assay; assay type: functional, cell-based; details: A549, 72 h
HCT-116 [4] = assay: Induction of cell cycle arrest in human HCT-116 cells assessed as accumulation of cells at G2/M phase at 10 nM incubated for 24 hrs by RNase A/propidium iodide staining based flow cytometric analysis (reference value: 4.05 %); assay type: functional
HCT-116 [5] = assay: Induction of apoptosis in human HCT-116 cells assessed as viable cells at 100 nM incubated for 48 hrs by Annexin V-FITC/PI staining based flow cytometry analysis (reference value: 94.31 %); assay type: functional; details: read-out: Activity
HCT-116 [6] = assay: Antiproliferative activity against human HCT-116 cells assessed as inhibition of cell proliferation measured after 72 hrs by CCK8 assay; assay type: functional, cell-based; details: HCT-116, 72 h
[7] = molecular target: Protein cereblon/Kinesin-like protein KIF11 (Homo sapiens, UniProt P52732+Q96SW2); assay: PROTAC activity at CRBN/KSP in human HCT-116 cells assessed as induction of KSP degradation at 500 nM incubated for 48 hrs by Western blot analysis relative to control; assay type: cell-based
Chain of Protein cereblon/Kinesin-like protein KIF11 (Q96SW2 whole entry, looked up, one chain of several): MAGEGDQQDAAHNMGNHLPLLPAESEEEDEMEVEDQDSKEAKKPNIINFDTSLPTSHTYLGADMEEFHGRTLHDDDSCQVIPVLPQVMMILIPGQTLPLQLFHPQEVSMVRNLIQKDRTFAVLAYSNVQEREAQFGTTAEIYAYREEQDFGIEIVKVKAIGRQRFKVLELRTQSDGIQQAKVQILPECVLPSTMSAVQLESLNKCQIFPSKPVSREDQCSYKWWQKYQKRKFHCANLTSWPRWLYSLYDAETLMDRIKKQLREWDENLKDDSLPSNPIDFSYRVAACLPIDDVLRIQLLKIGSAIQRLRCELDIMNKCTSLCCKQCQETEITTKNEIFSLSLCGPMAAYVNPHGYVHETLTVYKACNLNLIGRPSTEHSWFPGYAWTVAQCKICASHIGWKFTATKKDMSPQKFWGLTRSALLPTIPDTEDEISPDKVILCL

HCT-116 [8] = assay: Induction of apoptosis in human HCT-116 cells assessed as early apoptotic cells at 100 nM incubated for 48 hrs by Annexin V-FITC/PI staining based flow cytometry analysis (reference value: 3.02 %); assay type: functional
[9] = molecular target: T1, Kinesin-like protein KIF11 (Homo sapiens, UniProt P52732); assay: Inhibition of KSP (unknown origin) ATPase activity preincubated for 30 mins followed by ATP addition and measured after 15 mins by Kinase-Glo Plus reagent based luminescence analysis
T1 sequence (P52732 whole entry): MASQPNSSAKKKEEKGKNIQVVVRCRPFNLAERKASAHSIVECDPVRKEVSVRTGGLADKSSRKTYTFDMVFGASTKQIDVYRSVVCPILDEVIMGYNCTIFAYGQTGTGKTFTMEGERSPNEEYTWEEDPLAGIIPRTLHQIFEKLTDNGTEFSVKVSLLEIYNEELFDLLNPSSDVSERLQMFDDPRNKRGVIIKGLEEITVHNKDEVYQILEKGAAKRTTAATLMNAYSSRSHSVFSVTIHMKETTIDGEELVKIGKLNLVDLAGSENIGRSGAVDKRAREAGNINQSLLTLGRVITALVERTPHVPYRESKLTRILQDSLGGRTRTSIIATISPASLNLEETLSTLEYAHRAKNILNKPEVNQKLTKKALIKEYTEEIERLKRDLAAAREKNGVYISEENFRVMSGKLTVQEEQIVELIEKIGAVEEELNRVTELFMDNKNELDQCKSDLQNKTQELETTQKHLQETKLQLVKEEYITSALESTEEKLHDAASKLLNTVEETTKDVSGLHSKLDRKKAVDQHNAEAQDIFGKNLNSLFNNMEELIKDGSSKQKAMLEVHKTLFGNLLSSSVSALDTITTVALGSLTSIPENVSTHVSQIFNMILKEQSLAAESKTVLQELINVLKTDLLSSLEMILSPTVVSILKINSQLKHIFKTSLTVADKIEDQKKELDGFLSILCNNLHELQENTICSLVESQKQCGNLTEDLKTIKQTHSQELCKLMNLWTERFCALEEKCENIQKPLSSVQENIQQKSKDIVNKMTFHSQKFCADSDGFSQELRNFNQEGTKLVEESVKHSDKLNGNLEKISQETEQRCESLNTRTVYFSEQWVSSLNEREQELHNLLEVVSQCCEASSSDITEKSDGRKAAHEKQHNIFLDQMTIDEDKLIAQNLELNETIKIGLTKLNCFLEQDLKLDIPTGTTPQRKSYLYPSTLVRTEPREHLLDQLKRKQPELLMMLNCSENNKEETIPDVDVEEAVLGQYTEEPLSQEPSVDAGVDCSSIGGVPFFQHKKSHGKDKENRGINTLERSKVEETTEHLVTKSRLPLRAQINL

HCT-116 [10] = assay: Induction of apoptosis in human HCT-116 cells assessed as necrotic cells at 100 nM incubated for 48 hrs by Annexin V-FITC/PI staining based flow cytometry analysis (reference value: 1.31 %); assay type: functional
HCT-116 [11] = assay: PROTAC activity at VHL-L/KSP in human HCT-116 cells assessed as induction of KSP degradation at 500 nM incubated for 48 hrs by Western blot analysis relative to control; assay type: cell-based

IC50 (HCT-116 [6]) | Activity [7] | SMILES | other results
8.5 nM | 0% | COc1ccc(C2(SC[C@H](N)C(=O)O)c3ccccc3C=Cc3ccccc32)cc1 | Activity (HCT-116 [1]): 23.79%; IC50 (MCF7): 17.5 nM; IC50 (MDA-MB-231): 12.1 nM; Activity (HCT-116 [2]): 66.9%; Activity (HCT-116 [3]): 12.07%; IC50 (A549): 262 nM; Activity (HCT-116 [4]): 21.03%; viability at 0.1 µM (HCT-116 [5]): 30.7%; Activity (HCT-116 [8]): 31.49%; IC50 [9]: 27.6 nM; Activity (HCT-116 [10]): 14.06%
96.9 nM | 42.1% | COc1ccc(C2(SC[C@H](N)C(=O)NCCCNC(=O)COc3cccc4c3C(=O)N(C3CCC(=O)NC3=O)C4=O)c3ccccc3C=Cc3ccccc32)cc1 (stereo partly specified) | 
366 nM | 12.8% | COc1ccc(C2(SC[C@H](N)C(=O)NCCOCCNc3cccc4c3C(=O)N(C3CCC(=O)NC3=O)C4=O)c3ccccc3C=Cc3ccccc32)cc1 (stereo partly specified) | 
51.3 nM | 53.9% | COc1ccc(C2(SC[C@H](N)C(=O)NCCCCCCCCCCNc3ccc4c(c3)C(=O)N(C3CCC(=O)NC3=O)C4=O)c3ccccc3C=Cc3ccccc32)cc1 (stereo partly specified) | 
165 nM |  | COc1ccc(C2(SC[C@H](N)C(=O)NCCOCCOCCOCCC(=O)N[C@H](C(=O)N3C[C@H](O)C[C@H]3C(=O)NCc3ccc(-c4scnc4C)cc3)C(C)(C)C)c3ccccc3C=Cc3ccccc32)cc1 | Activity (HCT-116 [11]): 32.1%
203 nM | 25.7% | COc1ccc(C2(SC[C@H](N)C(=O)NCCOCCNc3ccc4c(c3)C(=O)N(C3CCC(=O)NC3=O)C4=O)c3ccccc3C=Cc3ccccc32)cc1 (stereo partly specified) | 
66.8 nM | 46.6% | COc1ccc(C2(SC[C@H](N)C(=O)NCCCCCNC(=O)COc3cccc4c3C(=O)N(C3CCC(=O)NC3=O)C4=O)c3ccccc3C=Cc3ccccc32)cc1 (stereo partly specified) | 
181 nM |  | COc1ccc(C2(SC[C@H](N)C(=O)NCCCCCCC(=O)N[C@H](C(=O)N3C[C@H](O)C[C@H]3C(=O)NCc3ccc(-c4scnc4C)cc3)C(C)(C)C)c3ccccc3C=Cc3ccccc32)cc1 | Activity (HCT-116 [11]): 25.2%
42.2 nM | 53.2% | COc1ccc(C2(SC[C@H](N)C(=O)NCCOCCOCCNC(=O)COc3cccc4c3C(=O)N(C3CCC(=O)NC3=O)C4=O)c3ccccc3C=Cc3ccccc32)cc1 (stereo partly specified) | 
53.8 nM | 54.3% | COc1ccc(C2(SC[C@H](N)C(=O)NCCCCCCCCNc3ccc4c(c3)C(=O)N(C3CCC(=O)NC3=O)C4=O)c3ccccc3C=Cc3ccccc32)cc1 (stereo partly specified) | 
93.4 nM | 42.3% | COc1ccc(C2(SC[C@H](N)C(=O)NCCCCCCNc3cccc4c3C(=O)N(C3CCC(=O)NC3=O)C4=O)c3ccccc3C=Cc3ccccc32)cc1 (stereo partly specified) | 
360 nM | 10.6% | COc1ccc(C2(SC[C@H](N)C(=O)NCCCCNc3ccc4c(c3)C(=O)N(C3CCC(=O)NC3=O)C4=O)c3ccccc3C=Cc3ccccc32)cc1 (stereo partly specified) | 
247 nM | 11.2% | COc1ccc(C2(SC[C@H](N)C(=O)NCCCCNc3cccc4c3C(=O)N(C3CCC(=O)NC3=O)C4=O)c3ccccc3C=Cc3ccccc32)cc1 (stereo partly specified) | 
184 nM | 29.1% | COc1ccc(C2(SC[C@H](N)C(=O)NCCOCCOCCNc3cccc4c3C(=O)N(C3CCC(=O)NC3=O)C4=O)c3ccccc3C=Cc3ccccc32)cc1 (stereo partly specified) | 
52.9 nM | 52.5% | COc1ccc(C2(SC[C@H](N)C(=O)NCCCCCCNC(=O)COc3cccc4c3C(=O)N(C3CCC(=O)NC3=O)C4=O)c3ccccc3C=Cc3ccccc32)cc1 (stereo partly specified) | 
145 nM | 35.6% | COc1ccc(C2(SC[C@H](N)C(=O)NCCCCCCNc3ccc4c(c3)C(=O)N(C3CCC(=O)NC3=O)C4=O)c3ccccc3C=Cc3ccccc32)cc1 (stereo partly specified) | 
31.6 nM | 68.3% | COc1ccc(C2(SC[C@H](N)C(=O)NCCCCCCCCCCNC(=O)COc3cccc4c3C(=O)N(C3CCC(=O)NC3=O)C4=O)c3ccccc3C=Cc3ccccc32)cc1 (stereo partly specified) | 

Second part, the compound before the results:

SMILES | IC50 (HCT-116 [6]) | Activity [7] | other results
COc1ccc(C2(SC[C@H](N)C(=O)NCCCCCCCCC(=O)N[C@H](C(=O)N3C[C@H](O)C[C@H]3C(=O)NCc3ccc(-c4scnc4C)cc3)C(C)(C)C)c3ccccc3C=Cc3ccccc32)cc1 | 262 nM |  | Activity (HCT-116 [11]): 18.3%
COc1ccc(C2(SC[C@H](N)C(=O)NCCOCCOCCOCCNc3cccc4c3C(=O)N(C3CCC(=O)NC3=O)C4=O)c3ccccc3C=Cc3ccccc32)cc1 (stereo partly specified) | 81.3 nM | 43.5% | 
COc1ccc(C2(SC[C@H](N)C(=O)NCCOCCOCCOCCNc3ccc4c(c3)C(=O)N(C3CCC(=O)NC3=O)C4=O)c3ccccc3C=Cc3ccccc32)cc1 (stereo partly specified) | 95.4 nM | 40.6% | 
COc1ccc(C2(SC[C@H](N)C(=O)NCCOCCOCCOCCNC(=O)COc3cccc4c3C(=O)N(C3CCC(=O)NC3=O)C4=O)c3ccccc3C=Cc3ccccc32)cc1 (stereo partly specified) | 206 nM | 28.3% | 
COc1ccc(C2(SC[C@H](N)C(=O)NCCCCCCCCNc3cccc4c3C(=O)N(C3CCC(=O)NC3=O)C4=O)c3ccccc3C=Cc3ccccc32)cc1 (stereo partly specified) | 40.8 nM | 61.5% | 
COc1ccc(C2(SC[C@H](N)C(=O)NCCCCCCCCCCNc3cccc4c3C(=O)N(C3CCC(=O)NC3=O)C4=O)c3ccccc3C=Cc3ccccc32)cc1 (stereo partly specified) | 42.3 nM | 60.1% | 
COc1ccc(C2(SC[C@H](N)C(=O)NCCCCC(=O)N[C@H](C(=O)N3C[C@H](O)C[C@H]3C(=O)NCc3ccc(-c4scnc4C)cc3)C(C)(C)C)c3ccccc3C=Cc3ccccc32)cc1 | 130 nM |  | Activity (HCT-116 [11]): 38.3%
COc1ccc(C2(SC[C@H](N)C(=O)NCCCCNC(=O)COc3cccc4c3C(=O)N(C3CCC(=O)NC3=O)C4=O)c3ccccc3C=Cc3ccccc32)cc1 (stereo partly specified) | 83.7 nM | 43.6% | 
COc1ccc(C2(SC[C@H](N)C(=O)NCCOCCC(=O)N[C@H](C(=O)N3C[C@H](O)C[C@H]3C(=O)NCc3ccc(-c4scnc4C)cc3)C(C)(C)C)c3ccccc3C=Cc3ccccc32)cc1 | 110 nM |  | Activity (HCT-116 [11]): 42.2%
COc1ccc(C2(SC[C@H](N)C(=O)NCCOCCOCCNc3ccc4c(c3)C(=O)N(C3CCC(=O)NC3=O)C4=O)c3ccccc3C=Cc3ccccc32)cc1 (stereo partly specified) | 235 nM | 24.1% | 
COc1ccc(C2(SC[C@H](N)C(=O)NCCOCCOCCC(=O)N[C@H](C(=O)N3C[C@H](O)C[C@H]3C(=O)NCc3ccc(-c4scnc4C)cc3)C(C)(C)C)c3ccccc3C=Cc3ccccc32)cc1 | 158 nM |  | Activity (HCT-116 [11]): 34.5%
COc1ccc(C2(SC[C@H](N)C(=O)NCCNC(=O)COc3cccc4c3C(=O)N(C3CCC(=O)NC3=O)C4=O)c3ccccc3C=Cc3ccccc32)cc1 (stereo partly specified) | 313 nM | 18.5% | 
COc1ccc(C2(SC[C@H](N)C(=O)NCCOCCNC(=O)COc3cccc4c3C(=O)N(C3CCC(=O)NC3=O)C4=O)c3ccccc3C=Cc3ccccc32)cc1 (stereo partly specified) | 37.4 nM | 60.1% | 
